The values that follow come from ChEMBL document CHEMBL5113478, “7-Azaindole, 2,7-diazaindole, and 1H-pyrazole as core structures for novel anticancer agents with potential chemosensitizing properties” (Eur J Med Chem, 2022).

Common to all, as to type: functional
Test [1] relates to A549. Put plainly: Antiproliferative activity against human A549 cells assessed as […] cell proliferation at 10 uM incubated for 48 hrs in presence of 15 uM of CDDP by WST-1 assay relative to control.
Test [2] has as its system Jurkat. Put plainly: Antiproliferative activity against human Jurkat cells assessed as […] cell proliferation at 10 uM incubated for 48 hrs by WST-1 assay relative to control.
For test [3], the system named is MCF7. Put plainly: Antiproliferative activity against human MCF7 cells assessed as […] cell proliferation at 10 uM incubated for 48 hrs by WST-1 assay relative to control.
For test [4], the system named is Jurkat. Description: Antiproliferative activity against human Jurkat cells assessed as […] cell proliferation at 10 uM incubated for 48 hrs in presence of 2 uM of CDDP by WST-1 assay relative to control.
Test [5] has as its system MOLT-4. Description: Antiproliferative activity against human MOLT-4 cells assessed as […] cell proliferation at 10 uM incubated for 48 hrs in presence of 2 uM of CDDP by WST-1 assay relative to control.
Test [6] concerns PANC-1. Description: Antiproliferative activity against human PANC-1 cells assessed as […] cell proliferation at 10 uM incubated for 48 hrs by WST-1 assay relative to control.
The subject of test [7] is A2780. Put plainly: Antiproliferative activity against human A2780 cells assessed as […] cell proliferation at 10 uM incubated for 48 hrs in presence of 2 uM of CDDP by WST-1 assay relative to control.
Test [8] deals with SAOS-2. Put plainly: Antiproliferative activity against human SAOS-2 cells assessed as […] cell proliferation at 10 uM incubated for 48 hrs in presence of 15 uM of CDDP by WST-1 assay relative to control.
Test [9] concerns SAOS-2. Description: Antiproliferative activity against human SAOS-2 cells assessed as […] cell proliferation at 10 uM incubated for 48 hrs by WST-1 assay relative to control.
Test [10] deals with HT-29. Description: Antiproliferative activity against human HT-29 cells assessed as […] cell proliferation at 10 uM incubated for 48 hrs in presence of 15 uM of CDDP by WST-1 assay relative to control.
Test [11] deals with HeLa. Put plainly: Antiproliferative activity against human HeLa cells assessed as […] cell proliferation at 10 uM incubated for 48 hrs in presence of 15 uM of CDDP by WST-1 assay relative to control.
The test system of test [12] is A549. Description: Antiproliferative activity against human A549 cells assessed as […] cell proliferation at 10 uM incubated for 48 hrs by WST-1 assay relative to control.
The test system of test [13] is HeLa. Description: Antiproliferative activity against human HeLa cells assessed as […] cell proliferation at 10 uM incubated for 48 hrs by WST-1 assay relative to control.
Test [14] deals with MCF7. Put plainly: Antiproliferative activity against human MCF7 cells assessed as […] cell proliferation at 10 uM incubated for 48 hrs in presence of 10 uM of CDDP by WST-1 assay relative to control.
The subject of test [15] is MOLT-4. Description: Antiproliferative activity against human MOLT-4 cells assessed as […] cell proliferation at 10 uM incubated for 48 hrs by WST-1 assay relative to control.
Test [16] deals with PANC-1. Description: Antiproliferative activity against human PANC-1 cells assessed as […] cell proliferation at 10 uM incubated for 48 hrs in presence of 15 uM of CDDP by WST-1 assay relative to control.
Test [17] relates to A2780. Description: Antiproliferative activity against human A2780 cells assessed as […] cell proliferation at 10 uM incubated for 48 hrs by WST-1 assay relative to control.
Test [18] relates to HT-29. Description: Antiproliferative activity against human HT-29 cells assessed as […] cell proliferation at 10 uM incubated for 48 hrs by WST-1 assay relative to control.

Consider `CCN(CC)c1ccc(CNC(=O)c2cc3cc(-c4ccc(S(=O)(=O)C(C)C)cc4)cnc3[nH]2)cc1`, for which the Activity in the test with A549 [1] was determined as 57%; with Jurkat [2], 95%; in the test on MCF7 [3], 95%; in the test on Jurkat [4], 57%; with MOLT-4 [5] it was 57%; in the test on PANC-1 [6], 95%. Besides, the Activity came out at 57% in the test on A2780 [7]; 57% with SAOS-2 [8]; 95% in the test on SAOS-2 [9]; 57% with HT-29 [10]; 57% in the test with HeLa [11]; 95% in the test on A549 [12]. The Activity in the test on HeLa [13] is on record as 95%; in the test on MCF7 [14] it was 57%; in the test with MOLT-4 [15], 95%; with PANC-1 [16], 57%; with A2780 [17], 95%. In the test with HT-29 [18], the “Cell viability relative to control” value is 95%.

Take `CS(=O)(=O)c1ccc(-c2cnc(N)c(C(=O)Nc3ccccc3)n2)cc1`: the Activity is listed as 16% with A549 [1]; 66% in the test on Jurkat [2]; 66% with MCF7 [3]; 16% in the test with Jurkat [4]; 16% in the test on MOLT-4 [5]; 66% with PANC-1 [6]. Besides, the Activity in the test with A2780 [7] was found to be 16%; with SAOS-2 [8] it was 16%; with SAOS-2 [9] it was 66%; with HT-29 [10], 16%; in the test on HeLa [11] it was 16%; in the test with A549 [12], 66%. In addition, the Activity is listed as 66% with HeLa [13]; 16% with MCF7 [14]; 66% in the test with MOLT-4 [15]; 16% with PANC-1 [16]; 66% in the test with A2780 [17]. For the same compound, the “Cell viability relative to control” value in the test with HT-29 [18] worked out at 66%.

With `CS(=O)(=O)c1ccc(-c2cnc3[nH]cc(C(=O)N4CCC(c5ccccc5)CC4)c3c2)cc1`, the Activity with A549 [1] is listed as 44%; in the test on Jurkat [2], 49%; in the test with MCF7 [3], 49%; with Jurkat [4], 44%; in the test on MOLT-4 [5], 44%; in the test with PANC-1 [6] it was 49%. For the same compound, the Activity with A2780 [7] is reported as 44%; with SAOS-2 [8], 44%; with SAOS-2 [9], 49%; in the test on HT-29 [10], 44%; in the test with HeLa [11] it was 44%; in the test with A549 [12], 49%. In addition, the Activity in the test with HeLa [13] was determined as 49%; in the test with MCF7 [14], 44%; in the test with MOLT-4 [15] it was 49%; in the test on PANC-1 [16], 44%; in the test with A2780 [17] it was 49%. Besides, the “Cell viability relative to control” value in the test with HT-29 [18] was 49%.

Turning to `CC(C)S(=O)(=O)c1ccc(-c2cc(C(=O)N3CCC(c4ccccc4)CC3)n[nH]2)cc1`, the Activity in the test on A549 [1] was 62%; in the test with Jurkat [2], 84%; with MCF7 [3], 84%; with Jurkat [4] it was 62%; with MOLT-4 [5] it was 62%; with PANC-1 [6], 84%. The Activity with A2780 [7] came to 62%; in the test with SAOS-2 [8], 62%; in the test on SAOS-2 [9], 84%; with HT-29 [10], 62%; in the test with HeLa [11], 62%; in the test on A549 [12] it was 84%. Moreover, the Activity with HeLa [13] worked out at 84%; in the test with MCF7 [14], 62%; in the test on MOLT-4 [15] it was 84%; in the test on PANC-1 [16], 62%; with A2780 [17], 84%. Further, the “Cell viability relative to control” value with HT-29 [18] was determined as 84%.

Turning to `CC(C)S(=O)(=O)c1ccc(-c2cnc3[nH]c(C(=O)Nc4ccc(N(C)C)cc4)cc3c2)cc1`, the Activity was 68% with A549 [1]; 108% with Jurkat [2]; 108% in the test with MCF7 [3]; 68% in the test on Jurkat [4]; 68% in the test on MOLT-4 [5]; 108% in the test with PANC-1 [6]. For the same compound, the Activity with A2780 [7] is recorded as 68%; with SAOS-2 [8], 68%; in the test with SAOS-2 [9] it was 108%; with HT-29 [10] it was 68%; in the test on HeLa [11], 68%; in the test with A549 [12], 108%. In addition, the Activity with HeLa [13] amounted to 108%; in the test on MCF7 [14], 68%; with MOLT-4 [15] it was 108%; in the test on PANC-1 [16], 68%; with A2780 [17], 108%. Also, the “Cell viability relative to control” value with HT-29 [18] was found to be 108%.

Consider `CC(C)S(=O)(=O)c1ccc(-c2cnc3[nH]c(C(=O)Nc4ccccc4)cc3c2)cc1`, for which the Activity with A549 [1] amounted to 65%; in the test on Jurkat [2], 103%; in the test with MCF7 [3], 103%; in the test with Jurkat [4], 65%; in the test with MOLT-4 [5], 65%; in the test on PANC-1 [6] it was 103%. Further, the Activity in the test on A2780 [7] was determined as 65%; with SAOS-2 [8], 65%; in the test on SAOS-2 [9] it was 103%; with HT-29 [10], 65%; in the test on HeLa [11], 65%; in the test on A549 [12], 103%. In addition, the Activity in the test on HeLa [13] is given as 103%; with MCF7 [14] it was 65%; in the test with MOLT-4 [15], 103%; in the test with PANC-1 [16] it was 65%; in the test with A2780 [17] it was 103%. Besides, the “Cell viability relative to control” value in the test on HT-29 [18] is 103%.

With `CC(C)S(=O)(=O)c1ccc(-c2cnc3[nH]cc(C(=O)N4CCc5ccccc5C4)c3c2)cc1`, the Activity stood at 66% with A549 [1]; 85% in the test on Jurkat [2]; 85% with MCF7 [3]; 66% in the test on Jurkat [4]; 66% in the test with MOLT-4 [5]; 85% in the test with PANC-1 [6]. Also, the Activity was found to be 66% with A2780 [7]; 66% with SAOS-2 [8]; 85% with SAOS-2 [9]; 66% in the test with HT-29 [10]; 66% in the test with HeLa [11]; 85% in the test on A549 [12]. The Activity worked out at 85% in the test with HeLa [13]; 66% in the test on MCF7 [14]; 85% with MOLT-4 [15]; 66% in the test with PANC-1 [16]; 85% with A2780 [17]. For the same compound, the “Cell viability relative to control” value in the test with HT-29 [18] is listed as 85%.

For `CC(C)S(=O)(=O)c1ccc(-c2cc(C(=O)Nc3ccccc3)n[nH]2)cc1`, the Activity in the test with A549 [1] amounted to 70%; with Jurkat [2] it was 107%; with MCF7 [3], 107%; in the test with Jurkat [4], 70%; in the test with MOLT-4 [5] it was 70%; in the test on PANC-1 [6], 107%. The Activity with A2780 [7] worked out at 70%; with SAOS-2 [8] it was 70%; in the test on SAOS-2 [9], 107%; in the test with HT-29 [10], 70%; with HeLa [11], 70%; with A549 [12], 107%. Also, the Activity was found to be 107% with HeLa [13]; 70% in the test on MCF7 [14]; 107% with MOLT-4 [15]; 70% in the test with PANC-1 [16]; 107% in the test with A2780 [17]. The “Cell viability relative to control” value in the test with HT-29 [18] is 107%.

`CCN(CC)c1ccc(CNC(=O)c2c[nH]c3ncc(-c4ccc(S(C)(=O)=O)cc4)cc23)cc1`: the Activity is recorded as 59% in the test with A549 [1]; 76% in the test on Jurkat [2]; 76% with MCF7 [3]; 59% in the test with Jurkat [4]; 59% in the test on MOLT-4 [5]; 76% in the test with PANC-1 [6]. Besides, the Activity with A2780 [7] is recorded as 59%; in the test with SAOS-2 [8], 59%; with SAOS-2 [9], 76%; in the test with HT-29 [10], 59%; in the test with HeLa [11], 59%; in the test on A549 [12], 76%. The Activity came to 76% in the test with HeLa [13]; 59% in the test on MCF7 [14]; 76% in the test on MOLT-4 [15]; 59% with PANC-1 [16]; 76% in the test on A2780 [17]. Moreover, the “Cell viability relative to control” value in the test with HT-29 [18] was 76%.
